Data on 13 molecules can be found in ChEMBL document CHEMBL1127370, “Synthesis and structure-activity relationship of methyl-substituted indolo[2,3-b]quinolines: novel cytotoxic, DNA topoisomerase II inhibitors” (J Med Chem, 1994).

One data set has as its system Nucleic Acid. Conditions: Bos taurus.
A further data set deals with Micrococcus luteus. Briefly: microbe, parasite or virus in culture.
Another data set deals with Staphylococcus aureus. Briefly: microbe, parasite or virus in culture.
The next data set deals with Candida albicans. Briefly: microbe, parasite or virus in culture.
The test system of the next data set is Trichophyton benhamiae. Briefly: microbe, parasite or virus in culture.

Each structure is given as a SMILES string. ≈ marks a conversion by molar mass, not a printed value.

Description for Candida albicans: Tested for antimicrobial activity against Candida albicans (clinical isolate) at concentration of 0.01-5 uM/mL
Description for KB: Cytotoxicity in vitro against KB cell line
Description for Micrococcus luteus: Tested for antimicrobial activity against Micrococcus luteus PCM 525 at concentration of 0.01-5 uM/mL
Description for Nucleic Acid: Increase of calf thymus DNA denaturation temperature (delta Tm)
Description for Staphylococcus aureus: Tested for antimicrobial activity against Staphylococcus aureus PCM 458 at concentration of 0.01-5 uM/mL
Description for Trichophyton benhamiae: Tested for antimicrobial activity against Trichophyton mentagrophytes (clinical isolate) at concentration of 0.01-5 uM/mL
Description for physchem: Acid ionization constant is determined

Molecule `Cc1ccc2[nH]c3nc4ccccc4c-3c(C)c2c1` had an ID50 in the data set on KB of 0.1 uM ml-1. The thermal shift (ΔTm) (usually the change in melting temperature against a reference sample) in the data set on Nucleic Acid was 1.4 °C. Besides, the pKa (in general, the negative logarithm of the acid dissociation constant) in the data set “physchem” came to 5.73.

The molecule `Cc1ccc2nc3n(C)c4ccc(C)cc4c(C)c-3c2c1` gave an ID50 in the data set on KB of 0.002 uM ml-1. Also, the MIC against Micrococcus luteus was determined as 15 µM (≈ 4.12 µg/mL); against Staphylococcus aureus, 30 µM (≈ 8.23 µg/mL); against Candida albicans, 15 µM (≈ 4.12 µg/mL); in the data set on Trichophyton benhamiae, 30 µM (≈ 8.23 µg/mL). Further, the ΔTm in the data set on Nucleic Acid is 19 °C. In addition, the pKa in the data set “physchem” came out at 7.68.

For the molecule `Cc1c2ccncc2c(C)c2c1[nH]c1ccccc12` [ELLIPTECINE], the ID50 in the data set with KB amounted to 0.07 uM ml-1. Further, the thermal shift (ΔTm) in the data set with Nucleic Acid worked out at 9.8 °C. The pKa in the data set “physchem” was found to be 7.4.

As to `Cc1ccc2nc3[nH]c4ccc(C)cc4c(C)c-3c2c1`, the ID50 with KB turned out to be 0.1 uM ml-1. In addition, in the data set on Nucleic Acid, the shift in melting temperature (ΔTm) came to 1.6 °C. Moreover, in “physchem”, the pKa turned out to be 5.98.

For the molecule `COc1cccc2c1C(=O)c1c(O)c3c(c(O)c1C2=O)C[C@@](O)(C(=O)CO)C[C@@H]3O[C@H]1C[C@H](N)[C@H](O)[C@H](C)O1`, the thermal shift (ΔTm) in the data set on Nucleic Acid came out at 13 °C.

Regarding `c1ccc2[nH]c3nc4ccccc4c-3cc2c1`, in the data set with KB, the ID50 was found to be 0.6 uM ml-1. Moreover, the shift in melting temperature (ΔTm) with Nucleic Acid was found to be 0.3 °C. The same molecule returned a pKa in the data set “physchem” of 5.55.

Consider `Cn1c2nc3ccccc3c-2cc2ccccc21` [NEOCRYPTOLEPINE], for which the ID50 with KB amounted to 0.006 uM ml-1. Besides, the MIC with Micrococcus luteus came out at 250 µM (≈ 58.1 µg/mL); in the data set on Staphylococcus aureus, 250 µM (≈ 58.1 µg/mL); against Candida albicans, 120 µM (≈ 27.9 µg/mL); against Trichophyton benhamiae, 60 µM (≈ 13.9 µg/mL). Moreover, in the data set on Nucleic Acid, the ΔTm was 5.2 °C. The pKa in the data set “physchem” is 7.24.

Consider `Cc1c2c3ccccc3nc-2n(C)c2c(C)cccc12`, for which the ID50 in the data set on KB came to 0.009 uM ml-1. In addition, the MIC in the data set on Micrococcus luteus worked out at 120 µM (≈ 31.2 µg/mL); in the data set with Staphylococcus aureus, 250 µM (≈ 65.1 µg/mL); in the data set on Candida albicans, 120 µM (≈ 31.2 µg/mL); against Trichophyton benhamiae it was 60 µM (≈ 15.6 µg/mL). In addition, the ΔTm with Nucleic Acid came out at 10.4 °C. In the data set “physchem”, this molecule showed a pKa of 7.62.

For the molecule `Cc1ccc2c(c1)c(C)c1c3ccccc3nc-1n2C`, the ID50 with KB was determined as 0.003 uM ml-1. In addition, the MIC against Micrococcus luteus was found to be 30 µM (≈ 7.81 µg/mL); in the data set on Staphylococcus aureus, 60 µM (≈ 15.6 µg/mL); in the data set on Candida albicans, 15 µM (≈ 3.91 µg/mL); in the data set on Trichophyton benhamiae it was 30 µM (≈ 7.81 µg/mL). In the data set with Nucleic Acid, the thermal shift (ΔTm) worked out at 13.3 °C. In addition, the pKa in the data set “physchem” turned out to be 7.6.

The molecule `Cc1ccc2[nH]c3nc4ccccc4c(C)c3c2c1` came in with an ID50 with KB of 0.1 uM ml-1. Also, the ΔTm with Nucleic Acid worked out at 0.9 °C. Further, the pKa in “physchem” turned out to be 5.8.

The molecule `Cc1c2c3ccccc3nc-2n(C)c2ccccc12` registered an ID50 in the data set on KB of 0.004 uM ml-1. In addition, the MIC against Micrococcus luteus stood at 60 µM (≈ 14.8 µg/mL); in the data set on Staphylococcus aureus it was 120 µM (≈ 29.6 µg/mL); against Candida albicans, 30 µM (≈ 7.39 µg/mL); in the data set with Trichophyton benhamiae, 60 µM (≈ 14.8 µg/mL). Moreover, the ΔTm in the data set with Nucleic Acid came out at 11 °C. Moreover, in the data set “physchem”, the pKa was determined as 7.45.

`Cc1cccc2c(C)c3c(nc12)[nH]c1ccccc13` yielded an ID50 in the data set on KB of 0.1 uM ml-1. Moreover, the ΔTm in the data set on Nucleic Acid amounted to 1.1 °C. The pKa in “physchem” was found to be 5.78.

In the data set on KB, `Cc1c2c3ccccc3nc-2[nH]c2ccccc12` had an ID50 of 0.2 uM ml-1. In addition, in the data set with Nucleic Acid, the thermal shift (ΔTm) turned out to be 0.7 °C. This molecule also displayed a pKa in the data set “physchem” of 5.7.
